Here are results for 11 compounds from patent US7151116B2, “Apoptolidin analogs and derivatives for inducing apoptosis in transformed cells” (Board of Trustees of The Leland Stanford Junior University, priority 2003, dated 2006).

Where two headings read alike, the source gives them in different places.

Series [1] concerns the target T1, mitochondrial F0F1-ATPase (Saccharomyces cerevisiae, UniProt P00830+P07251+P38077).
T1 construct: endogenous in cells; host or cells: isolated yeast mitochondria (cell-free preparation)
Description: F0F1-ATPase inhibition assay in isolated yeast mitochondria (20 minute cell-free assay). Type of series: biochemical. The settings on record: for F0F1-ATPase inhibitory activity (in words): comparison. How it is done: The ability of isoapoptolidin and the apoptolidin derivatives described in Examples 3 and 4 to inhibit F0F1-ATPase in isolated yeast mitochondria was studied. The F0F1-ATPase assay is a rapid 20 minute cell-free assay.
The functionalized macrolide and δ-lactone fragments were assayed for inhibitory activity against mitochondrial F0F1-ATPase.

The nature of series [2]: Apoptolidin-isoapoptolidin equilibrium kinetics in PBS at 37° C. (reverse-phase HPLC). In kind it is physicochemical. The settings on record: solution starting from the labelled isomer (Q(t) = 0 at t = 0: apoptolidin, Q(t) = ∞ at t = 0: isoapoptolidin); for k1: apoptolidin to isoapoptolidin; for k−1: isoapoptolidin to apoptolidin. How it is done: (§1) To measure the kinetic parameters of apoptolidin and isoapoptolidin, solutions of both compounds in PBS (Dulbecco's phosphate buffered saline) were prepared and incubated at 37° C. in sealed reaction vessels. Periodically, the components present in the solutions were quantified using reverse-phase HPLC. Baseline separation was achieved using a 150×4.6 mm C18/5μ column eluting with a water/acetonitrile gradient from 40% to 90% over 30 min. After normalization for the difference in extinction coefficients (λobs=254 nm), these values were plotted and the rate constants k1 and k−1 were extracted by fitting the data to the integrated rate expression for a simple equilibrium. The kinetic parameters for apoptolidin and isoapoptolidin equilibrium over time in PBS at 37° C. The relative amounts of apoptolidin and isoapoptolidin at various time points are plotted in FIG. 2.

A short description of series [3]: Stability of solutions on storage (NMR, HPLC, UV-vis). In kind it is physicochemical. The settings on record: for conversion in dilute aqueous solution: ambient temperature, HPLC or UV-vis. An excerpt: To study the kinetic parameters of isoapoptolidin, the conversion between apoptolidin and isoapoptolidin under biological assay and chemical isolation conditions was observed. […] During this time, no conversion to isoapoptolidin is observed, either by NMR or HPLC. […] Given that the conversion between apoptolidin and isoapoptolidin goes in both directions, it is likely that these two compounds are in equilibrium.

Series [4] can be described thus: Isomerization in basic CD3OD (LCMS and NMR). Type of series: physicochemical. An excerpt: To prevent ring expansion, the primary alcohol may be efficiently converted to a methyl ether or benzoate ester by way of treatment with Meerwein's salt or benzoyl anhydride followed by deprotection, under this procedure, the following macrocycles resulted, respectively: Compound 23: Q^1=Q^2=Q^3=Q^4=Q^5=Q^7=H; Q^6=R^1=R^2=R^3=R^4=CH3 Compound 24: Q^1=Q^2=Q^3=Q^4=Q^5=Q^7=H; Q^6=[…]; R^1=R^2=R^3=R^4=CH3

A further series in a line: Stability in PBS (LC-MS). Type of series: physicochemical. The settings on record: conditions that promote apoptolidin/isoapoptolidin isomerization. How it is done:
as §1
This experiment leads to the conclusion that while derivatization of apoptolidin at C-20 blocks isomerization to isoapoptolidin, the resulting derivatives (compounds 18 and 20) undergo other transformations.

For series [5], the system named is 60 human cancer cell lines (NCI 60). The settings on record: of 37,000 compounds tested by the National Cancer Institute; cited from earlier work.
Series [6] has as its system rat glial cells transformed with the adenovirus E1A or E1A/E1B19K/E1B54K oncogenes. The settings on record: Seto et al., 1997; cited from earlier work.
Series [7] concerns untransformed rat glial cells. The settings on record: Seto et al., 1997; cited from earlier work.
The next series concerns normal fibroblasts. The settings on record: Seto et al., 1997; cited from earlier work.
Series [8] is described as follows: Stability in the presence of all F0F1-ATPase assay components. In kind it is physicochemical. The settings on record: up to 24 hours. How it is done: To test the ability of isoapoptolidin to inhibit F0F1-ATPase activity, solutions of isoapoptolidin and apoptolidin including all assay components were analyzed for isomerization. After 20 minutes at 37° C., less than 12% conversion was detected.
To test the ability of apoptolidin derivatives to inhibit F0F1-ATPase activity, compound 16 from Table 3 was exposed to all of the assay components for up to 24 hours.

In [1], `COC[C@@H](C[C@H]1O[C@@](O)([C@H](O)[C@@H]2C[C@H](OC)[C@@H](O)CC/C=C(C)/C=C/[C@@H](O[C@@H]3O[C@@H](C)[C@H](OC)[C@@H](O)[C@@H]3O)[C@H](C)/C=C(C)/C=C(C)/C=C(\C)C(=O)O2)[C@H](C)[C@@H](OC(C)=O)[C@H]1C)O[C@H]1C[C@](C)(O)[C@@H](O[C@H]2C[C@@H](OC)[C@H](OC(C)=O)[C@@H](C)O2)[C@H](C)O1` [Compound 14] had an IC50 of 0.4 ± 0.5 µM.
On the same count and under the same terms, with `COC[C@@H](C[C@H]1O[C@@](O)([C@H](O)[C@@H]2C[C@H](OC)[C@@H](O)CC/C=C(C)/C=C/[C@@H](O[C@@H]3O[C@@H](C)[C@H](OC)[C@@H](O)[C@@H]3OC(=O)c3ccccc3)[C@H](C)/C=C(C)/C=C(C)/C=C(\C)C(=O)O2)[C@H](C)[C@@H](O)[C@H]1C)O[C@H]1C[C@](C)(O)[C@@H](O[C@H]2C[C@@H](OC)[C@H](O)[C@@H](C)O2)[C@H](C)O1` [Compound 3] the figure was 0.3 ± 0.5 µM.
With `COC[C@@H](C[C@H]1O[C@@](O)([C@@H]2OC(=O)/C(C)=C/C(C)=C/C(C)=C/[C@@H](C)[C@H](O[C@@H]3O[C@@H](C)[C@H](OC)[C@@H](O)[C@@H]3O)/C=C/C(C)=C/CC[C@H](O)[C@@H](OC)C[C@@H]2O)[C@H](C)[C@@H](O)[C@H]1C)O[C@H]1C[C@](C)(O)[C@@H](O[C@H]2C[C@@H](OC)[C@H](O)[C@@H](C)O2)[C@H](C)O1` [Isoapoptolidin], in series [1], it took 17 ± 5 µM to reach half-maximal inhibition (IC50) and the “F0F1-ATPase inhibitory activity (in words)” value is listed as “reduced F0F1-ATPase inhibitory activity over apoptolidin”. Also, in series [2], the Keq is 0.638, the k1 was 0.0626 h⁻¹ and the “k−1” value turned out to be 0.0982 h⁻¹. The “conversion in dilute aqueous solution” value in [3] is recorded as “convert to apoptolidin”. Further, in [3] (−20° C., methanol), the “stable as a solution” value is “up to six months”.
Regarding `CO[C@@H]1[C@@H](O)[C@H](O)[C@H](O[C@@H]2/C=C/C(C)=C/CC[C@H](O)[C@@H](OC)C[C@@H](CO)OC(=O)/C(C)=C/C(C)=C/C(C)=C/[C@H]2C)O[C@H]1C` [Compound 22], the IC50 in [1] (Table 6, apoptolidin oxidative cleavage products, mitochondrial F0F1-ATPase, read-out: IC50) worked out at 16 ± 5 µM. Also, the “F0F1-ATPase inhibitory activity (in words)” value in [1] is recorded as “potency comparable to isoapoptolidin”. Also, the “isomerization to ring expanded isomer” value in series [4] is “slowly isomerized to its ring expanded isomer”.
Regarding `COC[C@@H](C[C@H]1O[C@@](O)([C@H](O)[C@@H]2C[C@H](OC)[C@@H](O)CC/C=C(C)/C=C/[C@@H](O[C@@H]3O[C@@H](C)[C@H](OC)[C@@H](OC(C)=O)[C@@H]3O)[C@H](C)/C=C(C)/C=C(C)/C=C(\C)C(=O)O2)[C@H](C)[C@@H](O)[C@H]1C)O[C@H]1C[C@](C)(O)[C@@H](O[C@H]2C[C@@H](OC)[C@H](O)[C@@H](C)O2)[C@H](C)O1` [Compound 17], half-maximal inhibition in series [1] (IC50) required 0.4 ± 0.5 µM.
The same measure, in the same setting: for `COC[C@@H](C[C@H]1O[C@@](OC)([C@H](O)[C@@H]2C[C@H](OC)[C@@H](O)CC/C=C(C)/C=C/[C@@H](O[C@@H]3O[C@@H](C)[C@H](OC)[C@@H](O)[C@@H]3O)[C@H](C)/C=C(C)/C=C(C)/C=C(\C)C(=O)O2)[C@H](C)[C@@H](O)[C@H]1C)O[C@H]1C[C@](C)(O)[C@@H](O[C@H]2C[C@@H](OC)[C@H](O)[C@@H](C)O2)[C@H](C)O1` [Compound 1] the value was 2.3 ± 0.5 µM.
`COC[C@@H](C[C@H]1O[C@@](O)([C@H](OC(C)=O)[C@@H]2C[C@H](OC)[C@@H](O)CC/C=C(C)/C=C/[C@@H](O[C@@H]3O[C@@H](C)[C@H](OC)[C@@H](O)[C@@H]3O)[C@H](C)/C=C(C)/C=C(C)/C=C(\C)C(=O)O2)[C@H](C)[C@@H](O)[C@H]1C)O[C@H]1C[C@](C)(O)[C@@H](O[C@H]2C[C@@H](OC)[C@H](O)[C@@H](C)O2)[C@H](C)O1` [Compound 18]: half-maximal inhibition in [1] (IC50) required 1.1 ± 0.5 µM. In addition, the “stability in PBS” value in “Stability in PBS (LC-MS)” is listed as “unstable under these conditions, producing several new compounds over a five hour period”.
Turning to `COC[C@@H](C[C@H]1O[C@@](O)([C@H](O)[C@@H]2C[C@H](OC)[C@@H](O)CC/C=C(C)/C=C/[C@@H](O[C@@H]3O[C@@H](C)[C@H](OC)[C@@H](O)[C@@H]3O)[C@H](C)/C=C(C)/C=C(C)/C=C(\C)C(=O)O2)[C@H](C)[C@@H](O)[C@H]1C)O[C@H]1C[C@](C)(O)[C@@H](O[C@H]2C[C@@H](OC)[C@H](O)[C@@H](C)O2)[C@H](C)O1` [Apoptolidin], the IC50 in [1] is 0.7 ± 0.5 µM. Also, in [2], the Keq came to 0.0616, the k1 came out at 0.0656 h⁻¹ and the “k−1” value was found to be 0.106 h⁻¹. Also, the “conversion in dilute aqueous solution” value in series [3] is reported as “convert to isoapoptolidin”. For the same compound, in series [3] (−20° C., dissolved in chloroform or methylene chloride), the “stable in solution (no conversion to isoapoptolidin by NMR or HPLC)” value is “up to three months”. In addition, the “rank of selectivity among cytotoxic agents” value in series [5] is given as “among the top 0.1% most selective cytotoxic agents”. For the same compound, in series [6], the induction of apoptosis entry is reported as “capable of inducing apoptosis”. In addition, the cytotoxic effect entry in series [7] was “no cytotoxic effect”. In the series with normal fibroblasts, the cytotoxic effect result is recorded as “no cytotoxic effect”.
Consider `COC[C@@H](C[C@H]1O[C@@](O)([C@H](O)[C@@H]2C[C@H](OC)[C@@H](O)CC/C=C(C)/C=C/[C@@H](O[C@@H]3O[C@@H](C)[C@H](OC)[C@@H](O)[C@@H]3O)[C@H](C)/C=C(C)/C=C(C)/C=C(\C)C(=O)O2)[C@H](C)[C@@H](O)[C@H]1C)O[C@H]1C[C@](C)(O)[C@@H](O[C@H]2C[C@@H](OC)[C@H](OC(C)=O)[C@@H](C)O2)[C@H](C)O1` [Compound 15], for which the IC50 in series [1] amounted to 0.8 ± 0.5 µM.
As to `COC[C@@H](C[C@H]1O[C@@](O)([C@H](O)[C@@H]2C[C@H](OC)[C@@H](OC(C)=O)CC/C=C(C)/C=C/[C@@H](O[C@@H]3O[C@@H](C)[C@H](OC)[C@@H](O)[C@@H]3O)[C@H](C)/C=C(C)/C=C(C)/C=C(\C)C(=O)O2)[C@H](C)[C@@H](O)[C@H]1C)O[C@H]1C[C@](C)(O)[C@@H](O[C@H]2C[C@@H](OC)[C@H](O)[C@@H](C)O2)[C@H](C)O1` [Compound 16], the IC50 in series [1] was found to be 0.8 ± 0.5 µM. Moreover, the “hydrolysis (ESIMS)” value in series [8] was “no hydrolysis was detected”.
As to `COC[C@@H](C[C@H]1O[C@@](O)([C@H](OC)[C@@H]2C[C@H](OC)[C@@H](O)CC/C=C(C)/C=C/[C@@H](O[C@@H]3O[C@@H](C)[C@H](OC)[C@@H](O)[C@@H]3O)[C@H](C)/C=C(C)/C=C(C)/C=C(\C)C(=O)O2)[C@H](C)[C@@H](O)[C@H]1C)O[C@H]1C[C@](C)(O)[C@@H](O[C@H]2C[C@@H](OC)[C@H](O)[C@@H](C)O2)[C@H](C)O1` [Compound 20], in series [1], the midpoint of inhibition, the IC50, lay at 2.8 ± 0.5 µM. Further, the “stability in PBS” value in the series “Stability in PBS (LC-MS)” is given as “partially convert to a second isomeric compound over a period of several hours”.

The term IC50 denotes the concentration at which inhibition is half-maximal.
